In publication PMC7279487, “Dual Target Ligands with 4-tert-Butylphenoxy Scaffold as Histamine H3 Receptor Antagonists and Monoamine Oxidase B Inhibitors” (International Journal of Molecular Sciences, 2020):
Structures can show the parent of a compound that is named as a salt.

Experiments:
hMAO B = target: T1, hMAO B (Homo sapiens, UniProt P27338); assay: hMAO B inhibition, fluorometric Amplex Red MAO assay; type: biochemical; settings: percent of inhibition at 1 μM; mean of two independent experiments; read-out: MAO B (%Inh.)
T1 construct: purchased Sigma Aldrich M7441
T1 sequence (P27338 1-520): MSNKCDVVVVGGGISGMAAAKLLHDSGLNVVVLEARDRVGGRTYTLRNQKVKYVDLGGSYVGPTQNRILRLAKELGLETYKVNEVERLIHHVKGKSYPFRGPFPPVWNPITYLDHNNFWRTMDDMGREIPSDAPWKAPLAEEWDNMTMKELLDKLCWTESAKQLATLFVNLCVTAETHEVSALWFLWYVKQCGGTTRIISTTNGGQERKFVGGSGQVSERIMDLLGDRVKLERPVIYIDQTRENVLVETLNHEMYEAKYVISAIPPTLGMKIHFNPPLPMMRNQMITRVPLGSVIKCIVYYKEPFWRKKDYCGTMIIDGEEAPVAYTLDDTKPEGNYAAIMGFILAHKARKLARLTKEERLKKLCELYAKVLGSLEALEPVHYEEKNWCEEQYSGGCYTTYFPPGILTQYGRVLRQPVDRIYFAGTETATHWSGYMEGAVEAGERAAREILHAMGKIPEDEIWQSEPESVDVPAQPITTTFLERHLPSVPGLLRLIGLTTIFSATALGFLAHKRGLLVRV

[1] = target: T2, human histamine H3 receptor (hH3R) (Homo sapiens, UniProt Q9Y5N1); assay: radioligand displacement binding assay, [3H]Nα-methylhistamine, HEK293 cells stably expressing hH3R; settings: HEK293 cells stably expressing human H3R, mean (95% CI)
T2 construct: expressed in transfected cells
T2 sequence (Q9Y5N1 whole entry): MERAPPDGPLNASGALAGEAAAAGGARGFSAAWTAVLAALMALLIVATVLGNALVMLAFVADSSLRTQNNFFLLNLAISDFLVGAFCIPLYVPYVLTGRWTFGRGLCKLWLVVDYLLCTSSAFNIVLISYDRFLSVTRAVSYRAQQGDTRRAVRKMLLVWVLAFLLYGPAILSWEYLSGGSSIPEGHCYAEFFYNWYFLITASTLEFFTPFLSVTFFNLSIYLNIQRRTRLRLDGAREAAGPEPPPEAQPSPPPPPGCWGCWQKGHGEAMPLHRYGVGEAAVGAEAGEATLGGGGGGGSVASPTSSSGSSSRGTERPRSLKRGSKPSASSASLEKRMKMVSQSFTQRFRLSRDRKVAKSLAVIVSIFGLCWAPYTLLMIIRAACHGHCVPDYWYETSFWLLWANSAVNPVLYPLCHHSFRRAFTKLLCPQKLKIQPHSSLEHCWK
Experimental: [^3H]N^α-methylhistamine was used as a radioligand.
The radioligand displacement binding assay was carried out in HEK-293 cells stably expressing the recombinant hH3R as described by Kottke et al. with slight modifications. […] Obtained data from at least three experiments (in at least duplicates) were analyzed with GraphPad Prism 6.1 (San Diego, CA, USA) using nonlinear regression (one-site competition on logarithmic scale), and Ki values were transformed from IC50 according to Cheng-Prusoff. Statistical analysis was performed on −log Ki values.

[2] = system: haloperidol-induced catalepsy; assay: haloperidol-induced catalepsy, crossed-leg position test; type: in vivo, Wistar rats; settings: mean ± SEM (n = 6)
Experimental: (§1) Haloperidol (dopamine D2 antagonist)-induced catalepsy in rodents is a popular model for screening of antiparkinsonian activity of compounds [21]. Caused symptoms in animals are similar to the inability of PD patients to initiate movements. […] The reversal of catalepsy was tested for 6 min (3 times in 3 min intervals) after 1 h of haloperidol administration. As the reference compound was used MSX-3, the adenosine A2A receptor antagonist with confirmed ability to reverse catalepsy mediated by D1 and D2 receptor antagonists.
(§2) The experiments were carried out on male rats Wistar (180–220 g). Animals were housed in plastic cages in room at a constant temperature of 20 ± 2 °C with natural light–dark cycles. The animals had free access to standard pellet diet and water and were used after a minimum of 3 days of acclimatization to the housing conditions. Control and experimental groups consisted of 6 animals each. All experimental procedures were performed according to the European Union Directive of 22 September 2010 (2010/63/EU) and Polish legislation concerning animal care and use and was approved by the Local Ethics Committee for Experiments on Animals in Kraków, Poland (Resolution No. 70/2014, approval date: 20 May 2014). The examined compound was administered as the suspension in 0.5% methylcellulose in constant volume of 10 mL/kg.
(§3) Antiparkinsonian activity in catalepsy tests was performed as described in [28]. Haloperidol was administered s.c. at a dose of 0.63 mg/kg, which in 100% of control animals caused catalepsy. Tested compounds were administered i.p. at the doses 50 and 25 mg/kg body weight, 5 min after haloperidol injection. After 60 min from the injection of haloperidol, to assess the occurrence of catalepsy, the animals were placed in a forced position and the time they remained in this position was measured. Two tests were performed to determine the antiparkinsonian activity: crossed leg position test and bar test. In the first test, the animals were put on the hind paws behind the front (forced position); in the second, the animals were supported on a wooden block (the front paws were placed on a block suspended 10 cm above the ground). Then, the time that the animals remain is measured in a forced position (time was measured to a maximum of 60 s). Observation was carried out 3 times in 3-min intervals. The shortening of the time of catalepsy to the control group was adopted for the antiparkinsonian activity.

[3] = system: haloperidol-induced catalepsy; assay: haloperidol-induced catalepsy, bar test; type: in vivo, Wistar rats; settings: mean ± SEM (n = 6)
Experimental: as §1
Haloperidol-induced catalepsy was not reduced by DL-76 administrated at a dose of 25 mg/kg body weight (Table 3). After administration of DL-76 at a dose of 50 mg/kg body weight, low antiparkinsonian activity in the bar test was observed. […] This effect was weaker than the anti-Parkisonian activity of MSX-3.
as §2, §3

inhibition at 1 µM (hMAO B) | melting point | Ki [1] | SMILES | also measured
28% | 170 to 172 °C | 252 nM | CC(C)(C)c1ccc(OCCCCCN2CCCCC2)cc1.O=C(O)C(=O)O [Compound 7, 1-(5-(4-tert-Butylphenoxy)pentyl)piperidine hydrogen oxalate] | 
13% | 156 to 158 °C | 225 nM | CC(C)(C)c1ccc(OCCCCCCN2CCCCC2)cc1.O=C(O)C(=O)O [Compound 8, 1-(6-(4-tert-Butylphenoxy)hexyl)piperidine hydrogen oxalate] | 
36% | 96 to 99 °C | 1560 nM | CC1CCCCN1CCCCCOc1ccc(C(C)(C)C)cc1.O=C(O)C(=O)O (stereo not drawn) [Compound 11, 1-(5-(4-tert-Butylphenoxy)pentyl)-2-methylpiperidine hydrogen oxalate] | 
 | 148 to 150 °C | 102 nM | CC1CCCN(CCCCOc2ccc(C(C)(C)C)cc2)C1.O=C(O)C(=O)O (stereo not drawn) [Compound 13, 1-(4-(4-tert-Butylphenoxy)butyl)-3-methylpiperidine hydrogen oxalate] | 
33% | 179 to 181 °C | 114 nM | CC1CCCN(CCCCCOc2ccc(C(C)(C)C)cc2)C1.O=C(O)C(=O)O (stereo not drawn) [Compound 14, 1-(5-(4-tert-Butylphenoxy)pentyl)-3-methylpiperidine hydrogen oxalate] | 
13% | 140 to 142 °C | 351 nM | CC1CCCN(CCCCCCOc2ccc(C(C)(C)C)cc2)C1.O=C(O)C(=O)O (stereo not drawn) [Compound 15, 1-(6-(4-tert-Butylphenoxy)hexyl)-3-methylpiperidine hydrogen oxalate] | 
38% | 140 to 142 °C | 3440 nM | CC1(C)CCCN(CCCCOc2ccc(C(C)(C)C)cc2)C1.O=C(O)C(=O)O [Compound 17, 1-(4-(4-tert-Butylphenoxy)butyl)-3,3-dimethylpiperidine hydrogen oxalate] | 
37% | 143 to 145 °C | 341 nM | CC1CC(C)CN(CCCOc2ccc(C(C)(C)C)cc2)C1.O=C(O)C(=O)O (stereo not drawn) [Compound 20, 1-(3-(4-tert-Butylphenoxy)propyl)-3,5-dimethylpiperidine hydrogen oxalate] | 
35% | 170 to 172 °C | 1380 nM | CC1CC(C)CN(CCCCOc2ccc(C(C)(C)C)cc2)C1.O=C(O)C(=O)O (stereo not drawn) [Compound 21, 1-(4-(4-tert-Butylphenoxy)butyl)-3,5-dimethylpiperidine hydrogen oxalate] | 
41% | 175 to 178 °C | 2240 nM | CC1CC(C)CN(CCCCCOc2ccc(C(C)(C)C)cc2)C1.O=C(O)C(=O)O (stereo not drawn) [Compound 22, 1-(5-(4-tert-Butylphenoxy)pentyl)-3,5-dimethylpiperidine hydrogen oxalate] | 
34% | 143 to 145 °C | 2080 nM | CC1CC(C)CN(CCCCCCOc2ccc(C(C)(C)C)cc2)C1.O=C(O)C(=O)O (stereo not drawn) [Compound 23, 1-(6-(4-tert-Butylphenoxy)hexyl)-3,5-dimethylpiperidine hydrogen oxalate] | 
37% | 158 to 160 °C | 316 nM | CC1CCN(CCCOc2ccc(C(C)(C)C)cc2)CC1.O=C(O)C(=O)O [Compound 24, 1-(3-(4-tert-Butylphenoxy)propyl)-4-methylpiperidine hydrogen oxalate] | 
33% |  | 400 nM | CC1CCN(CCCCOc2ccc(C(C)(C)C)cc2)CC1 [Compound 25, 1-(4-(4-tert-Butylphenoxy)butyl)-4-methylpiperidine hydrogen oxalate] | 
39% | 167 to 170 °C | 531 nM | CC1CCN(CCCCCOc2ccc(C(C)(C)C)cc2)CC1.O=C(O)C(=O)O [Compound 26, 1-(5-(4-tert-Butylphenoxy)pentyl)-4-methylpiperidine hydrogen oxalate] | 
10% | 136 to 139 °C | 1350 nM | CC1CCN(CCCCCCOc2ccc(C(C)(C)C)cc2)CC1.O=C(O)C(=O)O [Compound 27, 1-(6-(4-tert-Butylphenoxy)hexyl)-4-methylpiperidine hydrogen oxalate] | 
18% | 151 to 153 °C | 324 nM | CC(C)(C)c1ccc(OCCCCCN2CCCCCC2)cc1.O=C(O)C(=O)O [Compound 30, 1-(5-(4-tert-Butylphenoxy)pentyl)-azepane hydrogen oxalate] | 
23% | 130 to 132 °C |  | CC(C)(C)c1ccc(OCCCCCCN2CCCCCC2)cc1.O=C(O)C(=O)O [Compound 31, 1-(6-(4-tert-Butylphenoxy)hexyl)-azepane hydrogen oxalate] | 
 |  |  | C#CCn1c(=O)c2c(nc(/C=C/c3cccc(OC)c3)n2C)n(CCCOP(=O)(O)O)c1=O.[Na].[Na] [MSX-3, (E)-phosphoric acid mono-[3-[8-[2-(3-methoxyphenyl)vinyl]-7-methyl-2,6-dioxo-1-prop-2-ynyl-1,2,6,7-tetrahydro-purin-3-yl]propyl] ester disodium salt, reference compound] | Times of Observation of Catalepsy (s), 0 min ([2]; 25 mg/kg): 0 ± 0 s; Times of Observation of Catalepsy (s), 3 min ([2]; 25 mg/kg): 0 ± 0 s; Times of Observation of Catalepsy (s), 6 min ([2]; 25 mg/kg): 0 ± 0 s; Times of Observation of Catalepsy (s), 0 min ([2]; 50 mg/kg): 0 ± 0 s; Times of Observation of Catalepsy (s), 3 min ([2]; 50 mg/kg): 0 ± 0 s; Times of Observation of Catalepsy (s), 6 min ([2]; 50 mg/kg): 0 ± 0 s; Times of Observation of Catalepsy (s), 0 min ([3]; 25 mg/kg i.p.): 0 ± 0 s; Times of Observation of Catalepsy (s), 3 min ([3]; 25 mg/kg i.p.): 0 ± 0 s; Times of Observation of Catalepsy (s), 6 min ([3]; 25 mg/kg i.p.): 0 ± 0 s; Times of Observation of Catalepsy (s), 0 min ([3]; 50 mg/kg i.p.): 0 ± 0 s; Times of Observation of Catalepsy (s), 3 min ([3]; 50 mg/kg i.p.): 0 ± 0 s; Times of Observation of Catalepsy (s), 6 min ([3]; 50 mg/kg i.p.): 0 ± 0 s
